Tests used:
Experiment in all cases: Bliss excess, mean over the matrix (fraction); higher = more synergy
PA-1 (Ovarian Carcinoma) = tested on: PA-1 (Ovarian Carcinoma)
Method in brief: (§1)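 Bliss excess equals the observed combination effect minus the expected value EA + EB − EA·EB, where EA and EB are the effects of each agent alone. Combination Emax is the second-highest inhibition within the matrix. Inhibition was scaled from CellTiter-Glo 2.0 luminescence, with 0 set by vehicle wells and 1 by blank wells, after 72 hours of two-drug dosing of cells plated in 1536-well plates.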

IGR-37 (Melanoma) = tested on: IGR-37 (Melanoma)
Method in brief: as §1

[1] = tested on: SK-MG-1 (Low Grade Glioma)
Method in brief: as §1

[2] = tested on: NCI-H1650 (Lung Adenocarcinoma)
Method in brief: as §1

[3] = tested on: CAPAN-2 (Pancreatic Carcinoma)
Method in brief: as §1

Hs-445 (Non-Cancerous) = tested on: Hs-445 (Non-Cancerous)
Method in brief: as §1

[4] = tested on: NCI-H1581 (Non-Small Cell Lung Carcinoma)
Method in brief: as §1

[5] = tested on: ONS-76 (Other Solid Carcinomas)
Method in brief: as §1

[6] = tested on: NCI-H2066 (Squamous Cell Lung Carcinoma)
Method in brief: as §1

[7] = tested on: A549 (Lung Adenocarcinoma)
Method in brief: as §1

[8] = tested on: JSC-1 (B-Cell Non-Hodgkin's Lymphoma)
Method in brief: as §1

[9] = tested on: MDST8 (Colorectal Carcinoma)
Method in brief: as §1

[10] = tested on: NCI-H64 (Small Cell Lung Carcinoma)
Method in brief: as §1

FU97 (Gastric Carcinoma) = tested on: FU97 (Gastric Carcinoma)
Method in brief: as §1

[11] = tested on: COLO-320-HSR (Colorectal Carcinoma)
Method in brief: as §1

[12] = tested on: ECC10 (Gastric Carcinoma)
Method in brief: as §1

[13] = tested on: CAL-29 (Bladder Carcinoma)
Method in brief: as §1

[14] = tested on: A3-KAW (B-Cell Non-Hodgkin's Lymphoma)
Method in brief: as §1

[15] = tested on: COR-L311 (Small Cell Lung Carcinoma)
Method in brief: as §1

[16] = tested on: NCI-H1693 (Lung Adenocarcinoma)
Method in brief: as §1

| Structure (SMILES) | Bliss excess (PA-1 (Ovarian Carcinoma)) | Bliss excess (IGR-37 (Melanoma)) | Bliss excess [1] | Bliss excess [2] | Bliss excess [3] | Bliss excess (Hs-445 (Non-Cancerous)) | Bliss excess [4] | Bliss excess [5] | Bliss excess [6] | Bliss excess [7] | Bliss excess [8] | Bliss excess [9] | Bliss excess [10] | Bliss excess (FU97 (Gastric Carcinoma)) | Bliss excess [11] | Bliss excess [12] | Bliss excess [13] | Bliss excess [14] | Bliss excess [15] | Bliss excess [16] |
| --- | --- | --- | --- | --- | --- | --- | --- | --- | --- | --- | --- | --- | --- | --- | --- | --- | --- | --- | --- | --- |
| CCc1c2c(nc3ccc(O)cc13)-c1cc3c(c(=O)n1C2)COC(=O)[C@]3(O)CC [SN-38] + O=C(c1cc(Cc2n[nH]c(=O)c3ccccc23)ccc1F)N1CCN(C(=O)C2CC2)CC1 [Olaparib] (first compound max 0.3 µM, 7x7, partner max 10 µM) | 0.0044 | 0.0226 | 0.0512 | 0.0138 | -0.0382 | 0.0811 | 0.0009 | 0.05 | -0.0477 | 0.0064 | -0.0044 | -0.0419 | 0.101 | -0.0043 | -0.0523 | 0.119 |  |  |  |  |
| CC(=O)c1c(C)c2cnc(Nc3ccc(N4CCNCC4)cn3)nc2n(C2CCCC2)c1=O [Palbociclib] + CN(CC[C@H](CSC1=CC=CC=C1)NC2=C(C=C(C=C2)S(=O)(=O)NC(=O)C3=CC=C(C=C3)N4CCC(CC4)[C@H](C5=CC=CC=C5C6=CC=C(C=C6)Cl)O)S(=O)(=O)C(F)(F)F)CCO [AZD4320] (first compound max 10 µM, 7x7, partner max 1 µM) | -0.0315 |  | -0.078 | -0.0805 |  | 0.0465 |  |  |  | -0.0929 | -0.0418 | -0.0168 |  |  |  |  | -0.0702 | 0.0082 | 0.0047 | -0.0313 |
| CC(=O)Nc1cccc(-n2c(=O)n(C3CC3)c(=O)c3c(Nc4ccc(I)cc4F)n(C)c(=O)c(C)c32)c1 [Trametinib] + Cc1nc(-c2cn3c(n2)-c2ccc(-c4cnn(C(C)(C)C(N)=O)c4)cc2OCC3)n(C(C)C)n1 [Taselisib] (first compound max 1 µM, 7x7, partner max 10 µM) | 0.05 | 0.0677 | 0.144 | 0.0443 | 0.117 | 0.119 | 0.243 | 0.0124 | 0.0386 | 0.0568 | 0.218 | -0.0104 | 0.0284 |  | 0.0338 | 0.24 | 0.136 | 0.173 | 0.0018 | 0.0507 |
| Cc1c2c(nn1C)CSCc1cc(n(C)n1)CSc1cc(c3ccccc3c1)OCCCc1c(C(=O)O)n(C)c3c-2c(Cl)ccc13 [AZD5991] + C1CN(CCC1(C(=O)N[C@@H](CCO)C2=CC=C(C=C2)Cl)N)C3=NC=NC4=C3C=CN4 [Capivasertib] (first compound max 1 µM, 7x7, partner max 3 µM) | 0.0437 |  | 0.0354 | 0.012 | 0.0085 | -0.0545 | -0.0048 | -0.0003 | -0.0197 | -0.0312 | -0.0085 | -0.0102 | -0.0261 | -0.0174 | 0.0007 | 0.0934 | -0.0211 | 0.0236 | 0.0059 | -0.0294 |
| C[C@@H](c1ccc2nccn2c1)n1nnc2ncc(-c3cnn(C)c3)nc21 [Savolitinib] + CN(CC[C@H](CSC1=CC=CC=C1)NC2=C(C=C(C=C2)S(=O)(=O)NC(=O)C3=CC=C(C=C3)N4CCC(CC4)[C@H](C5=CC=CC=C5C6=CC=C(C=C6)Cl)O)S(=O)(=O)C(F)(F)F)CCO [AZD4320] (first compound max 1 µM, 7x7, partner max 1 µM) | -0.0096 |  | -0.0651 | -0.0646 |  | -0.0452 |  |  |  | -0.0576 | -0.0221 | -0.0668 |  |  |  |  | -0.0647 | -0.0158 | 0.0158 | -0.0491 |
| Cc1c2c(nn1C)CSCc1cc(n(C)n1)CSc1cc(c3ccccc3c1)OCCCc1c(C(=O)O)n(C)c3c-2c(Cl)ccc13 [AZD5991] + CCN(CCO)CCCOc1ccc2c(Nc3cc(CC(=O)Nc4cccc(F)c4)[nH]n3)ncnc2c1 [AZD2811] (first compound max 1 µM, 7x7, partner max 1 µM) | 0.0489 | 0.0533 | 0.0619 | 0.0357 | -0.0133 | 0.0869 | 0.108 | 0.0619 | 0.0154 | -0.0592 | 0.123 | 0.0586 | 0.144 |  | 0.0198 | 0.0058 | 0.072 | 0.0434 | -0.0057 | 0.0102 |
| COc1nnc2ccc(N3CCC(c4ccc(OCCN5CCN(C)C(=O)[C@H]5C)cc4)CC3)nn12 [AZD5153] + CN(CC[C@H](CSC1=CC=CC=C1)NC2=C(C=C(C=C2)S(=O)(=O)NC(=O)C3=CC=C(C=C3)N4CCC(CC4)[C@H](C5=CC=CC=C5C6=CC=C(C=C6)Cl)O)S(=O)(=O)C(F)(F)F)CCO [AZD4320] (first compound max 1 µM, 7x7, partner max 1 µM) | 0.0659 |  | 0.0462 | -0.0124 |  | 0.085 |  |  |  | -0.0236 | -0.0243 | 0.0929 |  |  |  |  | -0.0125 | -0.0232 | 0.0506 | 0.04 |
| Cc1c2c(nn1C)CSCc1cc(n(C)n1)CSc1cc(c3ccccc3c1)OCCCc1c(C(=O)O)n(C)c3c-2c(Cl)ccc13 [AZD5991] + C[C@@H]1COCCN1C2=NC(=NC(=C2)C3(CC3)[S@](=N)(=O)C)C4=C5C=CNC5=NC=C4 [AZD6738] (first compound max 1 µM, 7x7, partner max 10 µM) | 0.0702 | 0.124 | 0.0868 | 0.0392 | 0.0543 | -0.0064 | -0.0036 | -0.0017 | 0.0148 | 0.0007 | 0.018 |  | 0.0193 | -0.0064 | 0.0363 | 0.0683 | 0.0409 | 0.0161 | 0.0018 | 0.0316 |

Source: the supplement of paper PMC11061612
